Assay results as given in patent US20220348590A1, “CYCLOOXYGENASE-2 INHIBITORS AND USES THEREOF” (The Board Institute, Inc., priority 2019, published 2022).

Target: T1, COX2 (Rattus norvegicus, UniProt P35355)
T1 construct: in-vitro autoradiography in rat brain slices; from tissue; host or cells: rat brain slices
T1 sequence (P35355 18-604): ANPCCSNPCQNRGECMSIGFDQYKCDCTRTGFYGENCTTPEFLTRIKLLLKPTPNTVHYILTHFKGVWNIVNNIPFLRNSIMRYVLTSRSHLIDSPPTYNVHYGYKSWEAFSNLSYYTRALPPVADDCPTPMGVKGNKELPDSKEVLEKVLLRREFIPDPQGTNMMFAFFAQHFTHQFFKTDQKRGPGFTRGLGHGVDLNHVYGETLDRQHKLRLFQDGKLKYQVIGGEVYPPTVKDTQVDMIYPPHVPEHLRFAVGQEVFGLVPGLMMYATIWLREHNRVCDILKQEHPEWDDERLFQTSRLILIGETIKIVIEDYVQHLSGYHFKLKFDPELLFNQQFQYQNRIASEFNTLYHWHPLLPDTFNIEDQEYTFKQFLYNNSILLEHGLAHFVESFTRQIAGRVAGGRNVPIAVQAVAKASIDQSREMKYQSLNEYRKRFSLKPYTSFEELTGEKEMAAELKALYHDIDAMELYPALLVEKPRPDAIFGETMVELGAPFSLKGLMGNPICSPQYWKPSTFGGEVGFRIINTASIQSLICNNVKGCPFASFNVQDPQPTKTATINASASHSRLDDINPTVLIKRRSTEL
Test: in-vitro autoradiography in rat brain slices (self-block)
Format: binding
Source text: Three ligands have been evaluated with in-vitro autoradiography in rat brain slices. Radiolabeling was accomplished via methylation of either a sulfinate precursor ([^11C]Rofecoxib), hydroxyl precursor ([^11C]MC1) or thiol precursor ([^11C]98) using [^11C]-methyl iodide and offers chemical flexibility for radiolabeling of future candidates. […] This translated into a ˜2-fold increase in COX2 specific binding in a rat brain slice in-vitro autoradiography. […] These properties enable us to better understand the contribution of potency and free fraction to the ligand's specific binding.
Three newly synthesized COX2 ligands were successfully radiolabeled using this strategy and first evaluated by in-vitro autoradiography in rat brain slices using self-block experiments (FIG. 5). […] [^11C]36 was also evaluated for specific binding using self-block experiments in human post-mortem brain tissues (globus pallidus) from three Huntington's disease (HD) patients (FIG. 6). COX2 protein levels were quantified using immunostaining and defined as high, medium and low, respectively.

increase in COX2 specific binding (rat brain slice in-vitro autoradiography, compared to MC1): ~2 fold
specific binding (rat brain slices in vitro autoradiography, self-block, compared to earlier tracers): increase in specific binding
SMILES: CS(=O)(=O)c1ccc(-c2cncc(NCc3cccs3)n2)cc1 [Compound 98]
